Activity calls are given as the source filed them. The calls are words filed in the database; no cut-off is given here.
Key:
[1] = target: T1, Histone deacetylase 1 (Homo sapiens, UniProt Q13547); details: at 0.1 µM
[2] = target: T2, Protein deacetylase HDAC6 (Homo sapiens, UniProt Q9UBN7); assay: Inhibition of human HDAC6 by HDAC-Glo assay
T2 sequence (Q9UBN7 whole entry): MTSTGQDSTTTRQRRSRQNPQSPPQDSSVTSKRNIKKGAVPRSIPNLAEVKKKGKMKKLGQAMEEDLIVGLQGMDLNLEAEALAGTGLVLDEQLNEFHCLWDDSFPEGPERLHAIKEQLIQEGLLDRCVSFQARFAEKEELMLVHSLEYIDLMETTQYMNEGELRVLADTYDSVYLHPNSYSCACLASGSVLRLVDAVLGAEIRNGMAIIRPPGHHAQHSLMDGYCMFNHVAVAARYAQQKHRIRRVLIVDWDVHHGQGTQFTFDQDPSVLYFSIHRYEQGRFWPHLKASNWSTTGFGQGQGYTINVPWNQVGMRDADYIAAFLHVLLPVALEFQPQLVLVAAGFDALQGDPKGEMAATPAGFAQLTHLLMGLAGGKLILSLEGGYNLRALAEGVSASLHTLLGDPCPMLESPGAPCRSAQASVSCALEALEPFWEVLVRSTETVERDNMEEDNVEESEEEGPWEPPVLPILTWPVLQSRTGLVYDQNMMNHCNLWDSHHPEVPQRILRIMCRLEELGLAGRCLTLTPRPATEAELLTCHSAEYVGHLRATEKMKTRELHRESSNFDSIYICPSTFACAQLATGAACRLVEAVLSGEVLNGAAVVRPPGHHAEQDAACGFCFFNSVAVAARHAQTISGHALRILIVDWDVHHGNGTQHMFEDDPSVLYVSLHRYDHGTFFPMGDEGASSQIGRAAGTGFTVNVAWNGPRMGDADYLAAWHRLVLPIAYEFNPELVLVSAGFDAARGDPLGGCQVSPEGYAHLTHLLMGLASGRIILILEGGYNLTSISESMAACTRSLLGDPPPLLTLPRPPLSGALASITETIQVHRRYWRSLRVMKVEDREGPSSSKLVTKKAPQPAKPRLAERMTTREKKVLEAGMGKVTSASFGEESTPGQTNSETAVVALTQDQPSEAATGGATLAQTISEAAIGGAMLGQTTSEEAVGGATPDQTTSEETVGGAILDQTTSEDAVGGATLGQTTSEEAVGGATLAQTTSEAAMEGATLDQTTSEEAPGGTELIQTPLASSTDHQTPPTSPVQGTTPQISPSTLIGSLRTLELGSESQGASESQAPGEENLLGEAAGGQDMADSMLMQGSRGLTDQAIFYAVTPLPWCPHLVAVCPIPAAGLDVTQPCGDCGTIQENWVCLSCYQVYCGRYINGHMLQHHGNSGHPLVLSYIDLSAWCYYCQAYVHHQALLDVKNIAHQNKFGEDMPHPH

[3] = target: T3, Histone deacetylase 9 (Homo sapiens, UniProt Q9UKV0); assay: Inhibition of human HDAC9 at 0.1 uM by HDAC-Glo assay
[4] = target: T1, Histone deacetylase 1; assay: Inhibition of human HDAC1 by HDAC-Glo assay
[5] = target: T3, Histone deacetylase 9; assay: Inhibition of human HDAC9 by HDAC-Glo assay
[6] = target: T4, Protein deacetylase HDAC6 (Homo sapiens) (UniProt Q9UBN7); assay: Inhibition of human HDAC6 at 1 uM by HDAC-Glo assay
T4 sequence (whole entry): T2 sequence (Q9UBN7 whole entry)

T1 sequence (Q13547 whole entry): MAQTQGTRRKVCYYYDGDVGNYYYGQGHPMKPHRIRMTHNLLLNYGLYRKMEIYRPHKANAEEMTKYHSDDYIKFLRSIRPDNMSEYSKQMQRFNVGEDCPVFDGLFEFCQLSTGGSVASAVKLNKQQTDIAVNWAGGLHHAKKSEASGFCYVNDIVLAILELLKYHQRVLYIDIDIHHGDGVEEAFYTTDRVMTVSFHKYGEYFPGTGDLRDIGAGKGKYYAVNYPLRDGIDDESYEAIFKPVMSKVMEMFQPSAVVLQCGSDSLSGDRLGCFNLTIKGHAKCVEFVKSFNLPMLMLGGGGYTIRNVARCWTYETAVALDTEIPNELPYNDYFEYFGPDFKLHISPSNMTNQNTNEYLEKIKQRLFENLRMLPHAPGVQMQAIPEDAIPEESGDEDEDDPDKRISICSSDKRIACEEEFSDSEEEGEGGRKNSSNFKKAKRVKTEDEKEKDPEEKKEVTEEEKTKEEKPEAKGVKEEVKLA
T3 sequence (Q9UKV0 whole entry): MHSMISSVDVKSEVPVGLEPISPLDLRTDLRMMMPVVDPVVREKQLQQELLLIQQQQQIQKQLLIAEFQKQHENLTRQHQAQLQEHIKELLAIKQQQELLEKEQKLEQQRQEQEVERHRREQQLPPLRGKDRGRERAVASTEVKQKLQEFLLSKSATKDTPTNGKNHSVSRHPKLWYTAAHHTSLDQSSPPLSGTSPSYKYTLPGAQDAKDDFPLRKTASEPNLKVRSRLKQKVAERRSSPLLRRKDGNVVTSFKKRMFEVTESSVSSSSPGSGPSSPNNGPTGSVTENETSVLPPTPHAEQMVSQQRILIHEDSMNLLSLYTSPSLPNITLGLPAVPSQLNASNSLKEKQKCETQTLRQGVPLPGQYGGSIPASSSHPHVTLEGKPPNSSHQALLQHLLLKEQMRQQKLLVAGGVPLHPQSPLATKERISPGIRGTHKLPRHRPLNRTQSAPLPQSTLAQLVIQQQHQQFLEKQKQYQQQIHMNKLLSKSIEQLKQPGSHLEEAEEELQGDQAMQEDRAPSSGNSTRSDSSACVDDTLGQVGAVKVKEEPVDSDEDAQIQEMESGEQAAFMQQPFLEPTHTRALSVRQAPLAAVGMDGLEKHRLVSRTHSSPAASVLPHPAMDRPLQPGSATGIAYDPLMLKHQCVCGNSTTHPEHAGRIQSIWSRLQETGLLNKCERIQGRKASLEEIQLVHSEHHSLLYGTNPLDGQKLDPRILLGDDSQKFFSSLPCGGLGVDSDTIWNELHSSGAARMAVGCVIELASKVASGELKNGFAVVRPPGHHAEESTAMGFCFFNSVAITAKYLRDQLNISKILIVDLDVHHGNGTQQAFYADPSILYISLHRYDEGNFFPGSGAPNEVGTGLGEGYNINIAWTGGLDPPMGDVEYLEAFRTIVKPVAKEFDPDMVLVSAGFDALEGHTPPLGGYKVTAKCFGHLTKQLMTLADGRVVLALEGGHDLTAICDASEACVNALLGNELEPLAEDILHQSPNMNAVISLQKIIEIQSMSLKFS

Row | SMILES | inhibition [1] | IC50 [2] | inhibition [3] | IC50 [4] | IC50 [5] | inhibition [6]
1 | COc1cc(OC)cc(-c2csc(NC(=O)CCCCCCS)n2)c1 | Active | – | – | – | – | –
2 | COc1ccc(-c2csc(NC(=O)CCCCCCS)n2)cc1C | Active | – | – | – | – | –
3 | Cc1ccc(-c2csc(NC(=O)CCCCCCS)n2)cc1F | Active | 6100 nM | Active | 50 nM | 62 nM | –
4 | COc1cccc(-c2csc(NC(=O)CCCCCCS)n2)c1 | Active | – | – | – | – | 70%
5 | Cc1cc(C)cc(-c2csc(NC(=O)CCCCCCS)n2)c1 | Active | – | – | – | – | –
6 | O=C(CCCCCCS)Nc1nc(-c2cccc(Cl)c2)cs1 | Active | – | – | – | – | –
7 | CCCCc1ccc(-c2csc(NC(=O)CCCCCCS)n2)cc1 | Active | – | – | – | – | –
8 | O=C(CCCCCCS)Nc1nc(-c2ccc(F)cc2)cs1 | Active | 550 nM | Active | 36 nM | 57 nM | –
9 | O=C(CCCCCCS)Nc1nc(-c2cccc(F)c2)cs1 | Active | 150 nM | Active | 49 nM | 78 nM | 70%
10 | Cc1ccc(-c2csc(NC(=O)CCCCCCS)n2)cc1 | Active | – | Active | 57 nM | 42 nM | –
11 | CC(C)(C)c1ccc(-c2csc(NC(=O)CCCCCCS)n2)cc1 | Active | – | – | – | – | –
12 | COc1c(C)cc(-c2csc(NC(=O)CCCCCCS)n2)cc1C | Active | – | – | – | – | –
13 | O=C(CCCCCCS)Nc1nc(-c2ccccc2)cs1 | – | 230 nM | – | 96 nM | 82 nM | –
14 | CN(C(=O)CCCCCCS)c1nc(-c2ccccc2)cs1 | inactive | – | – | – | – | –
15 | Cc1cccc(-c2csc(NC(=O)CCCCCCS)n2)c1 | Active | – | – | – | – | –
16 | O=C(CCCCCCS)Nc1nc(-c2ccc(OC(F)(F)F)cc2)cs1 | Active | – | – | – | – | –
17 | COc1ccc(-c2csc(NC(=O)CCCCCCS)n2)cc1 | Active | – | – | – | – | –
